Test results from paper PMC10794188, “Structure-based development of 3,5-dihydroxybenzoyl-hydrazineylidene as tyrosinase inhibitor; in vitro and in silico study” (Scientific Reports, 2024).
Read-outs that look alike come from different tables or passages of the source.

Tests used:
mushroom tyrosinase = conditions: cited from earlier work
tyrosinase [1] = assay: Tyrosinase inhibitory assay (colorimetric, L-DOPA substrate); type: biochemical; conditions: for IC50: read-out: IC50 (µM) ± RSD
Protocol: The tyrosinase inhibitory activities of derivatives were performed according to the previously reported procedures[26],[27]. All the test samples were first dissolved in DMSO at dilution to the required final concentrations. Initially, in a 96-well microplate, 10 µl of test samples were added to 160 µl of phosphate buffer (pH = 6.8), and then 10 µl tyrosinase was added. After the mixture was pre-incubated at 28 °C for 20 min, 20 µl of L-DOPA solution was added. DMSO without test compounds was used as the control, and kojic acid was used as a positive control. After 8 min incubation absorbance of samples was measured at 490 nm. Each assay was conducted as three separate replicates.

skin melanoma cells = system: skin melanoma cells; set-up: method as in PMID 34140181; conditions: 8 µM; cited from earlier work
tyrosinase [2] = assay: Enzyme kinetic study (Lineweaver–Burk, L-DOPA); type: biochemical
Excerpt: The Lineweaver–Burk reciprocal plot was provided by plotting 1/V against 1/[S] at variable concentrations of the L-DOPA.

| SMILES | % inhibition at 100 µM (tyrosinase [1]) [%] | further results |
| --- | --- | --- |
| O=C(N/N=C/c1ccc(Cl)cc1)c1ccc(O)cc1 [Compound E] | – | IC50 (mushroom tyrosinase): 7.57 ± 0.01 µM |
| O=c1cc(CO)occ1O [Kojic acid, reference compound] | 23.64 ± 2.56 | – |
| O=C1NC(=O)C(=Cc2ccc(OCc3cn(Cc4ccccc4Cl)nn3)cc2)C(=O)N1 [Compound G] | – | IC50 (mushroom tyrosinase): 29.9 µM |
| Cc1ccc(NC(=O)Cn2cc(COc3ccc(C=NNC(=O)c4cc(O)cc(O)c4)cc3)nn2)cc1 [Compound 11j, 2-(4-((4-((2-(3,5-dihydroxybenzoyl)hydrazono)methyl)phenoxy)methyl)-1H-1,2,3-triazol-1-yl)-N-(p-tolyl)acetamide] | 15.22 ± 4.33 | – |
| NC(=S)N/N=C/c1ccc(OCc2cn(CC(=O)NCc3ccccc3)nn2)cc1 [Compound H] | – | melanin content (skin melanoma cells): 39.8%; IC50 (mushroom tyrosinase; L-DOPA as substrate): 0.17 µM; IC50 (mushroom tyrosinase; L-tyrosine as substrate): 0.11 µM |
| Clc1ccc(Cn2cc(COc3ccc(-c4nc5ccccc5[nH]4)cc3)nn2)cc1Cl [Compound F] | – | IC50 (mushroom tyrosinase): 9.42 µM |
| O=C(Cn1cc(COc2ccc(C=NNC(=O)c3cc(O)cc(O)c3)cc2)nn1)Nc1ccc(Cl)cc1Cl [Compound 11f, N-(2,4-dichlorophenyl)-2-(4-((4-((2-(3,5-dihydroxybenzoyl)hydrazineylidene)methyl)phenoxy)methyl)-1H-1,2,3-triazol-1-yl)acetamide] | 19.54 ± 2.48 | – |
| O=C(Cn1cc(COc2ccc(C=NNC(=O)c3cc(O)cc(O)c3)cc2)nn1)Nc1ccccc1 [Compound 11a, 2-(4-((4-((2-(3,5-dihydroxybenzoyl)hydrazineylidene)methyl)phenoxy)methyl)-1H-1,2,3-triazol-1-yl)-N-phenylacetamide] | 53.87 ± 1.53 | IC50 (tyrosinase [1]): 90.5 µM |
| O=C(Cn1cc(COc2ccc(C=NNC(=O)c3cc(O)cc(O)c3)cc2)nn1)Nc1ccc(Cl)cc1 [Compound 11d, N-(4-chlorophenyl)-2-(4-((4-((2-(3,5-dihydroxybenzoyl)hydrazineylidene)methyl)phenoxy)methyl)-1H-1,2,3-triazol-1-yl)Acetamide] | 22.82 ± 0.53 | – |
| O=C(Cn1cc(COc2ccc(C=NNC(=O)c3cc(O)cc(O)c3)cc2)nn1)Nc1ccc(Br)cc1 [Compound 11e, N-(4-bromophenyl)-2-(4-((4-((2-(3,5-dihydroxybenzoyl)hydrazono)methyl)phenoxy)methyl)-1H-1,2,3-triazol-1-yl)acetamide] | 14.13 ± 2.31 | – |
| CCOc1cc(/C=N/NC(=O)c2ccc(O)c(OC)c2)ccc1O [Compound C] | – | IC50 (mushroom tyrosinase): 1.58 µM |
| CCc1ccc(NC(=O)Cn2cc(COc3ccc(C=NNC(=O)c4cc(O)cc(O)c4)cc3)nn2)cc1 [Compound 11l, 2-(4-((4-((2-(3,5-dihydroxybenzoyl)hydrazineylidene)methyl)phenoxy)methyl)-1H-1,2,3-triazol-1-yl)-N-(4-ethylphenyl)acetamide] | 55.52 ± 4.63 | IC50 (tyrosinase [1]): 87.5 µM |
| O=C(/C=C/c1ccc(O)cc1)c1cc(O)cc(O)c1 [A] | – | IC50 (mushroom tyrosinase): 8.1 µM |
| Cc1cc([N+](=O)[O-])ccc1NC(=O)Cn1cc(COc2ccc(C=NNC(=O)c3cc(O)cc(O)c3)cc2)nn1 [Compound 11i, 2-(4-((4-((2-(3,5-dihydroxybenzoyl)hydrazineylidene)methyl)phenoxy)methyl)-1H-1,2,3-triazol-1-yl)-N-(2-methyl-4-nitrophenyl)acetamide] | 15.05 ± 2.29 | – |
| Cc1cccc(C)c1NC(=O)Cn1cc(COc2ccc(C=NNC(=O)c3cc(O)cc(O)c3)cc2)nn1 [Compound 11k, 2-(4-((4-((2-(3,5-dihydroxybenzoyl)hydrazineylidene)methyl)phenoxy)methyl)-1H-1,2,3-triazol-1-yl)-N-(2,6-dimethylphenyl)Acetamide] | 38.59 ± 0.74 | – |
| O=C(Cn1cc(COc2ccc(C=NNC(=O)c3cc(O)cc(O)c3)cc2)nn1)Nc1c(Cl)cccc1Cl [Compound 11g, N-(2,6-dichlorophenyl)-2-(4-((4-((2-(3,5-dihydroxybenzoyl)hydrazineylidene)methyl)phenoxy)methyl)-1H-1,2,3-triazol-1-yl)Acetamide] | 27.87 ± 1.83 | – |
| O=C(Cn1cc(COc2ccc(C=NNC(=O)c3cc(O)cc(O)c3)cc2)nn1)Nc1ccccc1F [Compound 11b, 2-(4-((4-((2-(3,5-dihydroxybenzoyl)hydrazono)methyl)phenoxy)methyl)-1H-1,2,3-triazol-1-yl)-N-(2-fluorophenyl)acetamide] | 22.99 ± 1.20 | – |
| COc1ccc(NC(=O)Cn2cc(COc3ccc(C=NNC(=O)c4cc(O)cc(O)c4)cc3)nn2)cc1 [Compound 11m, 2-(4-((4-((2-(3,5-dihydroxybenzoyl)hydrazineylidene)methyl)phenoxy)methyl)-1H-1,2,3-triazol-1-yl)-N-(4-methoxyphenyl)acetamide] | 78.81 ± 7.35 | mode of inhibition (tyrosinase [2]; Lineweaver–Burk plot): competitive; Ki (tyrosinase [2]; secondary plot of Km vs inhibitor concentration, L-DOPA, read-out: dissociation constant Ki): 52.8 µM; IC50 (tyrosinase [1]): 55.4 µM |
| CC(=O)c1cccc(NC(=O)COC(=O)/C=C/c2ccc(O)cc2O)c1 [D] | – | IC50 (mushroom tyrosinase): 0.002 µM |
| O=C(Cn1cc(COc2ccc(C=NNC(=O)c3cc(O)cc(O)c3)cc2)nn1)Nc1ccc([N+](=O)[O-])cc1 [Compound 11h, 2-(4-((4-((2-(3,5-dihydroxybenzoyl)hydrazineylidene)methyl)phenoxy)methyl)-1H-1,2,3-triazol-1-yl)-N-(4-nitrophenyl)Acetamide] | 22.74 ± 2.86 | – |
| O=C(Cn1cc(COc2ccc(C=NNC(=O)c3cc(O)cc(O)c3)cc2)nn1)Nc1ccc(F)cc1 [Compound 11c, 2-(4-((4-((2-(3,5-dihydroxybenzoyl)hydrazono)methyl)phenoxy)methyl)-1H-1,2,3-triazol-1-yl)-N-(4-fluorophenyl)acetamide] | 32.28 ± 2.76 | – |
| O=C(Cn1cc(COc2ccc(C=NNC(=O)c3cc(O)cc(O)c3)cc2)nn1)NCc1ccccc1 [Compound 11n, N-benzyl-2-(4-((4-((2-(3,5-dihydroxybenzoyl)hydrazineylidene)methyl)phenoxy)methyl)-1H-1,2,3-triazol-1-yl)acetamide] | 17.48 ± 1.79 | – |
